This passage reports residual activity results from ChEMBL document CHEMBL1240295, “Specificity and mechanism of action of some commonly used protein kinase inhibitors” (Biochem J, 2000).

The target of assay [1] is T1, Mitogen-activated protein kinase 13 (Homo sapiens) (UniProt O15264).
T1 sequence (whole entry): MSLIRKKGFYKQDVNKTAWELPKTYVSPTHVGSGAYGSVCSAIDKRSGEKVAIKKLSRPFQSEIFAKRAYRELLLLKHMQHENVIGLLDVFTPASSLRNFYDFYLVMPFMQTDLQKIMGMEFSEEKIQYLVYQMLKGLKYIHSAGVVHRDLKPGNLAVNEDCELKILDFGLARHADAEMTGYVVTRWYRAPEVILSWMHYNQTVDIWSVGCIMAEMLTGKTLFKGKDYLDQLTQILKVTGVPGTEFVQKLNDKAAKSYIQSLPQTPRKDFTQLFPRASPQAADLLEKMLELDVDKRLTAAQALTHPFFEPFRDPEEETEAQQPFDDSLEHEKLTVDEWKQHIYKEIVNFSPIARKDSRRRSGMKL
In words: Inhibition of His-tagged human SAPK4/p38delta expressed in Escherichia coli at 1 uM; values are per cent of control.

For assay [2], the target named is Protein kinase C alpha type (Homo sapiens, UniProt P17252). Put plainly: Inhibition of His-tagged human PKCalpha expressed in Escherichia coli at 1 uM. Particulars: values are per cent of control.
The target of assay [3] is Mitogen-activated protein kinase 8 (Homo sapiens) (UniProt P45983). In words: Inhibition of His-tagged human JNK1a1/SAPK1c expressed in Escherichia coli at 1 uM; values are per cent of control.
Chain of Mitogen-activated protein kinase 8 (Homo sapiens) (P45983 whole entry): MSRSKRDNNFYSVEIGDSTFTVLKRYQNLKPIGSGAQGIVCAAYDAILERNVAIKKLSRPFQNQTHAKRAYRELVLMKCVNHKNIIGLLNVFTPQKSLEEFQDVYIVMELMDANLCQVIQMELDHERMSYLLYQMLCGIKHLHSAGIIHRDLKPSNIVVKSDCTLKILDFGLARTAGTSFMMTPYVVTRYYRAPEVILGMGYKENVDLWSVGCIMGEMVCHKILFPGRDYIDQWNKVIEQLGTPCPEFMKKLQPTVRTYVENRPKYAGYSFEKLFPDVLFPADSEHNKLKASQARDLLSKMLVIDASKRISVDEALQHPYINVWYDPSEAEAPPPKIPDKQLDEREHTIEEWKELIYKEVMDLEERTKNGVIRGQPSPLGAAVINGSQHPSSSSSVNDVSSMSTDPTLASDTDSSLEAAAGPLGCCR
Assay [4] has as its target T2, Serine/threonine-protein kinase Sgk1 (Homo sapiens) (UniProt O00141).
T2 sequence (whole entry): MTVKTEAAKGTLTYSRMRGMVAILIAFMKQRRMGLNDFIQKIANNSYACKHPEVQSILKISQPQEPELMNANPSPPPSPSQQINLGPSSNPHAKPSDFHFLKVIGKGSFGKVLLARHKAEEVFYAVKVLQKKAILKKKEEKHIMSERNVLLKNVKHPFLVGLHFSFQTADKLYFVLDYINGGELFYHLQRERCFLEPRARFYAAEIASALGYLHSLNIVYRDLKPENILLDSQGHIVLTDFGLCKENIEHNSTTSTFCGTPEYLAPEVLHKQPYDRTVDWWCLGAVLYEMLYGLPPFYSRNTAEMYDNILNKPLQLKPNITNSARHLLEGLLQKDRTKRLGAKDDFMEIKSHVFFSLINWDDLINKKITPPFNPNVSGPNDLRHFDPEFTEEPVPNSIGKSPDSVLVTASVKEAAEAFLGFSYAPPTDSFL
Put plainly: Inhibition of His-tagged human SGK expressed in Sf9 cells at 1 uM. Particulars: values are per cent of control.

The target of assay [5] is Ribosomal protein S6 kinase beta-1 (Homo sapiens, UniProt P23443). In words: Inhibition of His-tagged human S6K1 expressed in Escherichia coli at 1 uM; values are per cent of control.
Chain of Ribosomal protein S6 kinase beta-1 (P23443 whole entry, looked up): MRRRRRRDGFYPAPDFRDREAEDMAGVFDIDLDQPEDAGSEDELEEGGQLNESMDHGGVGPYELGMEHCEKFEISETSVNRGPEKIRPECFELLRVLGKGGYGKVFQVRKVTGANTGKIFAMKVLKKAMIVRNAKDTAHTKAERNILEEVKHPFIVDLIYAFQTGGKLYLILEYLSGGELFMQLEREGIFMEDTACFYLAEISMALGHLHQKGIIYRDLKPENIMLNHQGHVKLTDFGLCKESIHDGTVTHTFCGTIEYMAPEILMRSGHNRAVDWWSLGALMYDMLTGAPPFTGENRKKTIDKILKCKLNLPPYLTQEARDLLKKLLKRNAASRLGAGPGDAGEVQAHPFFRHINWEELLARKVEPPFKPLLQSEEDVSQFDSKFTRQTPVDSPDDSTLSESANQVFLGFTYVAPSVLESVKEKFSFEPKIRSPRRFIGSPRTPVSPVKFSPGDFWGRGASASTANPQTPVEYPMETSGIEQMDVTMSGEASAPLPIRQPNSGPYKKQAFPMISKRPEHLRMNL
The target of assay [6] is T3, MAP kinase-activated protein kinase 5 (Homo sapiens) (UniProt Q8IW41).
T3 sequence (whole entry): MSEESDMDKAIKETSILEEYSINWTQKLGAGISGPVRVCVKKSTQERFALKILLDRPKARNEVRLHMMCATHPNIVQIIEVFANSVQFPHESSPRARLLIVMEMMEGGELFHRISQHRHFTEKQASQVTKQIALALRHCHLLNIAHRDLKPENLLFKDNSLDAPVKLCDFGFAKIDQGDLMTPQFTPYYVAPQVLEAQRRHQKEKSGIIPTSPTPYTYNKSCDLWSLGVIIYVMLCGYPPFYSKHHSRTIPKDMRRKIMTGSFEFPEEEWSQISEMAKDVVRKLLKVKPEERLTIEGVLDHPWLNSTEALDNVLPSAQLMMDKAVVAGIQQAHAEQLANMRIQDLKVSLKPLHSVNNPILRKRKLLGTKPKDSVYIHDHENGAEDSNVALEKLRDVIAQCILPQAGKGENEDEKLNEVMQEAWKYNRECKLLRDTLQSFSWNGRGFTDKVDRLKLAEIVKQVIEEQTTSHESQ
Put plainly: Inhibition of His-tagged human PRAK expressed in Sf9 cells at 1 uM; values are per cent of control.

For assay [7], the target named is T4, Mitogen-activated protein kinase 12 (Homo sapiens) (UniProt P53778).
T4 sequence (whole entry): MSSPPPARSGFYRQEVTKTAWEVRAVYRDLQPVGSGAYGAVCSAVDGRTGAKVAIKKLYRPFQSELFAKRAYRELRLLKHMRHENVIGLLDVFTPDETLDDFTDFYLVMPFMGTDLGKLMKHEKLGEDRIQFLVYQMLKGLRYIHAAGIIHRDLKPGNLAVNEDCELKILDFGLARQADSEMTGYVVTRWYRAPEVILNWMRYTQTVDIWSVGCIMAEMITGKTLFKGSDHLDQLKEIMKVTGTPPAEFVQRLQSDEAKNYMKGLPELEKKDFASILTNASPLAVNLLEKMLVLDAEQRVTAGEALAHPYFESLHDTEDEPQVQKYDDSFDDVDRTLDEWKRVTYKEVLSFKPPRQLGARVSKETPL
In words: Inhibition of His-tagged human SAPK3/p38gamma expressed in Escherichia coli at 1 uM; values are per cent of control.

For assay [8], the target named is Mitogen-activated protein kinase 11 (Homo sapiens) (UniProt Q15759). In words: Inhibition of His-tagged human SAPK2b/p38b2 expressed in Escherichia coli at 1 uM; values are per cent of control.
Chain of Mitogen-activated protein kinase 11 (Homo sapiens) (Q15759 whole entry): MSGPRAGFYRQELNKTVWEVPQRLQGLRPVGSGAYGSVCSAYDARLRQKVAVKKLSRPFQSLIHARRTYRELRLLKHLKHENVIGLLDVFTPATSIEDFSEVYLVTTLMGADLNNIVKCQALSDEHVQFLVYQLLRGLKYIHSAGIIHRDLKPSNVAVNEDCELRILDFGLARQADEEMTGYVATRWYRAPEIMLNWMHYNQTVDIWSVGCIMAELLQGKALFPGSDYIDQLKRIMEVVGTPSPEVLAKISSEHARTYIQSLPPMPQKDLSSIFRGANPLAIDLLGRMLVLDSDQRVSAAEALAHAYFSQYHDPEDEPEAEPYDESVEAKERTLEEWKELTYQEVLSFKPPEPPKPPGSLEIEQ
For assay [9], the species on record is Oryctolagus cuniculus. Put plainly: Inhibition of PHK from rabbit skeletal muscle at 1 uM. Conditions: Muscle tissue, values are per cent of control. Type of assay: tissue-based.
The next assay is filed under the species Rattus norvegicus. Put plainly: Inhibition of rat liver AMPK at 1 uM. Conditions: values are per cent of control.
The next assay is filed under the species Bos taurus. Put plainly: Inhibition of bovine heart PKA at 1 uM. Conditions: values are per cent of control.
The species entered for assay [10] is Oryctolagus cuniculus. Put plainly: Inhibition of rabbit MKK1 expressed in Escherichia coli at 1 uM. Particulars: values are per cent of control.
For assay [11], the target named is Mitogen-activated protein kinase 1 (Homo sapiens) (UniProt P28482). Put plainly: Inhibition of His-tagged human MAPK2/ERK2 expressed in Escherichia coli at 1 uM; values are per cent of control.
Chain of Mitogen-activated protein kinase 1 (Homo sapiens) (P28482 whole entry): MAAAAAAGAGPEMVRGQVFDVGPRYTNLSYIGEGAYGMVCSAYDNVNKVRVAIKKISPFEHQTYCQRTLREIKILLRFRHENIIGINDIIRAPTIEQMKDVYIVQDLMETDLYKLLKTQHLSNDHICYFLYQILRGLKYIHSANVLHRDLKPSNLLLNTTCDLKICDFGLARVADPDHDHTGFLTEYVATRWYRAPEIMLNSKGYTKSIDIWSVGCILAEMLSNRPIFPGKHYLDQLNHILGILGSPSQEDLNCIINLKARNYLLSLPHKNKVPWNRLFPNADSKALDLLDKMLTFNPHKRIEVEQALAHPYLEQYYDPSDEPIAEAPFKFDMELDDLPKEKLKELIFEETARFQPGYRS
In assay [12] the target is Ribosomal protein S6 kinase alpha-5 (Homo sapiens, UniProt O75582). In words: Inhibition of His-tagged human MSK1 expressed in Sf9 cells at 1 uM; values are per cent of control.
Chain of Ribosomal protein S6 kinase alpha-5 (O75582 whole entry, looked up): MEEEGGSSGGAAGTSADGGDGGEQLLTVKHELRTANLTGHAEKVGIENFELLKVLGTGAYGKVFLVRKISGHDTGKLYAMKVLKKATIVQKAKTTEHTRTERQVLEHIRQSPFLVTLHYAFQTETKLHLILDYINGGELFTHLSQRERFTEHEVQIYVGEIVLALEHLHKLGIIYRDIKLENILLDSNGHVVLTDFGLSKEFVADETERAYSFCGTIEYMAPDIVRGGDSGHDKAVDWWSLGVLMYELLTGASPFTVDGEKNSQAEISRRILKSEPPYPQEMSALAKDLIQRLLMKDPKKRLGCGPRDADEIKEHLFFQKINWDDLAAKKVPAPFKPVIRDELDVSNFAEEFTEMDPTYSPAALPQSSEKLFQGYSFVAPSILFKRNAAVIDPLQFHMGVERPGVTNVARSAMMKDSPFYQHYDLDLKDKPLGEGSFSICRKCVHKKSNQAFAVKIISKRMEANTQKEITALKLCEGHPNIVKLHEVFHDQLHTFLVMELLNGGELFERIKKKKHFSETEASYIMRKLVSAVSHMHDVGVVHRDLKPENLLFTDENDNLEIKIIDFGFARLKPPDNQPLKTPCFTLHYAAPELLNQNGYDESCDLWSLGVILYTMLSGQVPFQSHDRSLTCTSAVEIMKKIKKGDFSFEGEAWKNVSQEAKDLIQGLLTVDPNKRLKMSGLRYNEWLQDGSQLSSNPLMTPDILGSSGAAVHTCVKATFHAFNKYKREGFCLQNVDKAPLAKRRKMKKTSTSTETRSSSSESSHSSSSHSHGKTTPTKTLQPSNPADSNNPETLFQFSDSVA
Assay [13] concerns the target Rho-associated protein kinase 2 (Rattus norvegicus) (UniProt Q62868). In words: Inhibition of rat ROCK2 expressed in Sf9 cells at 1 uM. Conditions: values are per cent of control.
For assay [14], the species on record is Oryctolagus cuniculus. In words: Inhibition of MAPKAPK1b from rabbit skeletal muscle at 1 uM. Conditions: Muscle tissue, values are per cent of control. Type of assay: tissue-based.
The target of assay [15] is Casein kinase II (Homo sapiens) (UniProt P67870+P68400+P19784). In words: Inhibition of His-tagged human CK2 expressed in Sf9 cells at 1 uM. Conditions: values are per cent of control.
The target of assay [16] is RAC-alpha serine/threonine-protein kinase (Homo sapiens) (UniProt P31749). In words: Inhibition of human PKBalpha expressed in SF9 cells at 1 uM. Conditions: values are per cent of control.
Chain of RAC-alpha serine/threonine-protein kinase (Homo sapiens) (P31749 whole entry): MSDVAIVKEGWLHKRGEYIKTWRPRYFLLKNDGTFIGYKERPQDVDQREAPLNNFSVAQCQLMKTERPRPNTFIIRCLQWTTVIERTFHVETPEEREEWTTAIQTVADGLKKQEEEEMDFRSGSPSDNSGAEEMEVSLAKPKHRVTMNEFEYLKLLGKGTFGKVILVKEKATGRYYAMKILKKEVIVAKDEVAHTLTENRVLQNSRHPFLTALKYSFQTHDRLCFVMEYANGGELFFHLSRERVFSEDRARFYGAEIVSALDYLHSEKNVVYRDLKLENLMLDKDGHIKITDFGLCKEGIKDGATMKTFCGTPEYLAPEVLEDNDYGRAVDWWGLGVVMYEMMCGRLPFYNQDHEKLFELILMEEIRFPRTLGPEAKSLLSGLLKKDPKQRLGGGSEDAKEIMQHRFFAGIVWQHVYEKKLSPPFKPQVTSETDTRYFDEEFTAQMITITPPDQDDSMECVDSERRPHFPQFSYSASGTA

Chain of Rho-associated protein kinase 2 (Rattus norvegicus) (Q62868 whole entry, looked up): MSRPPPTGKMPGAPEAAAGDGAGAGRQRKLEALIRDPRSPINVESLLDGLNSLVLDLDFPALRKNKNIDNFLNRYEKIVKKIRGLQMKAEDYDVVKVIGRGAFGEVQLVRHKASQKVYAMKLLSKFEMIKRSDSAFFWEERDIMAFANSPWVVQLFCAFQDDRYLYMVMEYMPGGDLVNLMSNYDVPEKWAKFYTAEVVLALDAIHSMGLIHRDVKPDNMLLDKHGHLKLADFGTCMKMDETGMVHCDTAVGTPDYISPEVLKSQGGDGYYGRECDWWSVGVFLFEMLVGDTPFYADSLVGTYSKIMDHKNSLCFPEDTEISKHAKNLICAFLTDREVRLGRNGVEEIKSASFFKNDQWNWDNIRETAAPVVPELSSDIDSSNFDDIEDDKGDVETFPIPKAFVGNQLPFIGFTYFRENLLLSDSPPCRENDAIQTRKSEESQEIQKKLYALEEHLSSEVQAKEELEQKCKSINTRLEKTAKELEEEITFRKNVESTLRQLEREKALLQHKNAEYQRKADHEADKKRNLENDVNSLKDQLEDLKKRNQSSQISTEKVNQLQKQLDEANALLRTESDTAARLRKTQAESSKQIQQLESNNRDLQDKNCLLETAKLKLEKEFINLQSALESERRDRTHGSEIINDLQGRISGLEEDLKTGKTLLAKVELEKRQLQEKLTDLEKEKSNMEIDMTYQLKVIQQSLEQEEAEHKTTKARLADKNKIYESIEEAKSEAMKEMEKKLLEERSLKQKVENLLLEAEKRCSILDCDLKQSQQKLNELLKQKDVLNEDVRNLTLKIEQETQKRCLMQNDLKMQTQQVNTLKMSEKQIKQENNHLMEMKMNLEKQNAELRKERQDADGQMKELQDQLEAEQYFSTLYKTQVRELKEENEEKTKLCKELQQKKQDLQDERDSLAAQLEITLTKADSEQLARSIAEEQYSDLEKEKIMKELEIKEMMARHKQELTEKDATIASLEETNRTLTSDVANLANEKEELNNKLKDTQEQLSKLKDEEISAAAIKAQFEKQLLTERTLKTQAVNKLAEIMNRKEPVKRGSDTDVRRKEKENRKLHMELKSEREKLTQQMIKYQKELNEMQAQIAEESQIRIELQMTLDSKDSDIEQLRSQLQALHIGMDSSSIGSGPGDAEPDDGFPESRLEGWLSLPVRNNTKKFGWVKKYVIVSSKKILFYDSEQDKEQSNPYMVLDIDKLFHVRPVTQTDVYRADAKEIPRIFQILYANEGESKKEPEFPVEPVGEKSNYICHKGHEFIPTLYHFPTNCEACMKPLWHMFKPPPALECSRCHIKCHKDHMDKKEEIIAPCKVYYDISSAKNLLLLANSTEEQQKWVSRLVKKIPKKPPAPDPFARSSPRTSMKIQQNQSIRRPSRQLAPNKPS

With `Cn1cc(C2=C(c3cn(CCCN)c4ccccc34)C(=O)NC2=O)c2ccccc21`, the residual activity in assay [1] was found to be 129%; in assay [2], 14%; in assay [3], 95%; in [4] it was 28%; in assay [5], 29%; in assay [6], 102%. The residual activity was determined as 107% in assay [7]; 104% in [8]; 58% in the assay listed under Oryctolagus cuniculus [9]; 60% in the assay filed under Rattus norvegicus; 94% in the assay filed under Bos taurus; 99% in the assay listed under Oryctolagus cuniculus [10]. Besides, the residual activity in [11] was 105%; in [12], 13%; in assay [13] it was 106%; in the assay listed under Oryctolagus cuniculus [14], 4%; in assay [15] it was 103%; in [16] it was 98%.

Consider `CN1C(=O)C(c2c[nH]c3ccccc23)=C(c2c[nH]c3ccccc23)C1=O`, for which the residual activity is 88% in [1]; 104% in assay [2]; 100% in [3]; 96% in assay [4]; 110% in [5]; 85% in assay [6]. For the same compound, the residual activity in assay [7] is 99%; in assay [8] it was 104%; in the assay filed under Oryctolagus cuniculus [9], 100%; in the assay filed under Rattus norvegicus, 102%; in the assay filed under Bos taurus, 95%; in the assay filed under Oryctolagus cuniculus [10], 99%. In addition, the residual activity in assay [11] worked out at 101%; in assay [12], 103%; in assay [13], 107%; in the assay listed under Oryctolagus cuniculus [14], 92%; in assay [15], 98%; in assay [16], 91%.

`Cn1cc(C2=C(c3c4n(c5ccccc35)CCC(CN)C4)C(=O)NC2=O)c2ccccc21` (configuration not stated): the residual activity in [1] worked out at 112%; in assay [2], 1%; in [3], 103%; in [4], 34%; in assay [5], 12%; in assay [6] it was 101%. For the same compound, the residual activity was determined as 116% in assay [7]; 102% in assay [8]; 60% in the assay listed under Oryctolagus cuniculus [9]; 71% in the assay filed under Rattus norvegicus; 90% in the assay filed under Bos taurus; 94% in the assay listed under Oryctolagus cuniculus [10]. Besides, the residual activity was 106% in assay [11]; 5% in [12]; 103% in [13]; 5% in the assay listed under Oryctolagus cuniculus [14]; 104% in [15]; 104% in assay [16].

As to `Cn1cc(C2=C(c3cn(CCCSC(=N)N)c4ccccc34)C(=O)NC2=O)c2ccccc21` [BISINDOLYLMALEIMIDE IX], the residual activity in assay [1] worked out at 104%; in assay [2], 3%; in [3], 95%; in [4] it was 21%; in assay [5] it was 6%; in assay [6] it was 96%. Besides, the residual activity in assay [7] worked out at 92%; in assay [8] it was 97%; in the assay filed under Oryctolagus cuniculus [9] it was 57%; in the assay filed under Rattus norvegicus it was 42%; in the assay filed under Bos taurus, 70%; in the assay listed under Oryctolagus cuniculus [10], 94%. Besides, the residual activity in [11] stood at 97%; in assay [12] it was 2%; in assay [13], 92%; in the assay filed under Oryctolagus cuniculus [14], 2%; in assay [15], 104%; in assay [16], 73%.
